# According to patent US8173668B1 (Alcon Research, Ltd., priority 2007, dated 2012):
# “And” between values parts separate entries of the source, which are not always exact repeats. Equal entries are not always repeated.
# Legend:
# [1] = biological target: T1, B2-receptors in h-NPE cells (Homo sapiens, UniProt P30411); assay: [Ca2+]i mobilization (FLIPR) in h-NPE cells, agonist mode; assay type: cell-based; details: h-NPE cells, mean ± SEM
# T1 construct: B2-receptor proteins in h-TM, h-CM and h-NPE cells; endogenous in cells; host or cells: human trabecular meshwork (h-TM), human ciliary muscle (h-CM) and human non-pigmented ciliary epithelial (h-NPE) cells
# T1 sequence (P30411 1-391): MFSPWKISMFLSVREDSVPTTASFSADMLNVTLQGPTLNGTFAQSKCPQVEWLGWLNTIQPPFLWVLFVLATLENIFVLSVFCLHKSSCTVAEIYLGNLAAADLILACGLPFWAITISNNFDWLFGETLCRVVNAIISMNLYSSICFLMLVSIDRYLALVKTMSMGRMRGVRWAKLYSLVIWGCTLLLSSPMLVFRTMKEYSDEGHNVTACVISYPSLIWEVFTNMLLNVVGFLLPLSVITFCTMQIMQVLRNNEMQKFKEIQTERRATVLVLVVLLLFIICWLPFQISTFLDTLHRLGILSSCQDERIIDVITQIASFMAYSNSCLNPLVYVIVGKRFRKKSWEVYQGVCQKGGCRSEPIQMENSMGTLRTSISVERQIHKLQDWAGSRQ
# Description: (§1) On the day of the experiment, one vial of FLIPR Calcium Assay Kit dye is re-suspended in 50 mL of a FLIPR buffer consisting of Hank's Balanced Salt Solution (HBSS), 20 mM HEPES, and 2.5 mM probenecid, pH 7.4. Cells are loaded with the calcium-sensitive dye by addition of an equal volume (50 μL) to each well of the 96-well plate and incubated with dye for 1 h at 23° C. After this time, the test compound plate and cell plate are placed in the FLIPR instrument. At the beginning of an experimental run, a signal test is performed to check the basal fluorescence signal from the dye-loaded cells and the uniformity of the signal across the plate. The basal fluorescence is adjusted between 8000-12000 counts by modifying the exposure time, the camera F-stop, or the laser power. Instrument settings for a typical assay are the following: laser power 0.3-0.6 W, camera F-stop F/2, and exposure time 0.4 sec.
# (§2) Fluorescence data are collected in real-time at 1.0 sec intervals for the first 60 secs and at 6.0 sec intervals for an additional 120 secs. […] The data are then analyzed using an automated, iterative, sigmoidal curve-fitting computer program to obtain the potency and intrinsic activities of the test agents as previously described (Sharif et al. J. Pharmacol. Exp. Ther. 286: 1094-1102, 1998; Sharif et al. Invest. Ophthalmol. Vis. Sci. 39:2562-2571, 1998; Kelly et al. J. Pharmacol. Exp. Ther. 304: 238-245, 2003). The sources of materials and reagents for such assays can be found in the references cited above.
# [2] = biological target: T2, B2-receptors in h-TM cells (Homo sapiens, UniProt P30411); assay: [Ca2+]i mobilization (FLIPR) in h-TM cells, agonist mode; assay type: cell-based; details: h-TM cells, mean ± SEM
# T2 construct: B2-receptor proteins in h-TM, h-CM and h-NPE cells; endogenous in cells; host or cells: human trabecular meshwork (h-TM), human ciliary muscle (h-CM) and human non-pigmented ciliary epithelial (h-NPE) cells
# T2 sequence (P30411 1-391): T1 sequence (P30411 1-391)
# Description: as §1, §2
# [3] = tested on: conscious ocular hypertensive cynomolgus monkey eyes; assay: IOP response in lasered (hypertensive) eyes of conscious cynomolgus monkeys, topical ocular; assay type: in vivo; details: for % Change in IOP: Table 7, dose = 30 μg
# Description: Intraocular pressure (IOP) is determined with an Alcon Pneumatonometer (Alcon Laboratories, Inc., Fort Worth, Tex.) after light corneal anesthesia with 0.1% proparacaine. Right eyes are hypertensive as a result of laser trabeculoplasty. After a baseline IOP measurement, test compound is instilled in the right eyes only of 8-10 cynomolgus monkeys. Vehicle is instilled in the right eyes of 5-6 additional animals. Subsequent IOP measurements are taken at 1, 3, and 6 hours. IOP measurements are also taken on left eyes (normotensive and untreated) at each of these time points. The percent change in IOP from baseline is determined for each animal for every IOP measurement (Sharif et al. J. Ocular Pharmacol. Ther. 17: 305-317, 2001; May et al., J Pharmacol Exp Ther. 306: 301-309, 2003; Sharif et al. Invest. Ophthalmol. Vis. Res. 47: 4001-4010, 2006). Group mean and standard error of the mean (SEM) are calculated for each time point. […] In cases where the compound of invention has poor ocular bioavailability, the compound may need to be administered intracamerally or intravitreally in order to observe the IOP-lowering efficacy.
# The IOP-lowering effect was slow to develop but significant IOP reduction was observed even 3 hours post-dosing with maximum ocular hypotension observed 16-48 hours post-dosing (Tables 6-8; FIGS. 3b-5).
# [4] = biological target: T3, B2-receptors in h-CM cells (Homo sapiens, UniProt P30411); assay: [Ca2+]i mobilization (FLIPR) in h-CM cells, agonist mode; assay type: cell-based; details: h-CM cells, mean ± SEM
# T3 construct: B2-receptor proteins in h-TM, h-CM and h-NPE cells; endogenous in cells; host or cells: human trabecular meshwork (h-TM), human ciliary muscle (h-CM) and human non-pigmented ciliary epithelial (h-NPE) cells
# T3 sequence (P30411 1-391): T1 sequence (P30411 1-391)
# Description: as §1, §2
# [5] = biological target: human cloned B2-receptors (Homo sapiens, UniProt P30411); assay: HTRF-based assay of endogenous IP1 production in CHO cells; assay type: cell-based; details: CHO cells expressing human cloned B2-receptors, read-out: EC50, production of endogenous IP1 from PI turnover
# Description: The cells are suspended in IP1 stimulation buffer containing Hepes 10 mM, CaCl2 1 mM, MgCl2 0.5 mM, KCl 4.2 mM, NaCl 146 mM, Glucose 5.5 mM, LiCl 50 mM pH 7.4, then distributed in microplates at a density of 40,000 cells/well (B2 receptor assays) or 30,000 cells/well (B1 receptor assays). Test compounds are added to the cells at various concentrations and incubated for 20 min at 37° C. […] Following the 20 min incubation at 37° C., the cells are lysed and the fluorescence acceptor (D2-labeled IP1) and fluorescence donor (anti-IP1 antibody labeled with europium cryptate) are added. After 60 min at room temperature, the fluorescence transfer is measured at λex=337 nm and λem=620 and 665 nm using a microplate reader.
# [6] = biological target: T4, BK B2-Receptor in h-CM cells (Homo sapiens, UniProt P30411); assay: Antagonism of FR-190997-induced [Ca2+]i mobilization in h-CM cells; assay type: cell-based; details: FR-190997 as the agonist, read-out: Antagonist Potency (Ki)
# T4 construct: B2-receptor proteins in h-TM, h-CM and h-NPE cells; endogenous in cells; host or cells: human trabecular meshwork (h-TM), human ciliary muscle (h-CM) and human non-pigmented ciliary epithelial (h-NPE) cells
# Description: as §1, with “Instrument settings for a typical assay are the following: laser power 0.3-0.6 W, camera F-stop F/2, and exposure time 0.4 sec.” left out
# as §2, with “The sources of materials and reagents for such assays can be found in the references cited above.” left out
# [7] = biological target: T5, BK B2-Receptor in h-NPE cells (Homo sapiens, UniProt P30411); assay: Antagonism of FR-190997-induced [Ca2+]i mobilization in h-NPE cells; assay type: cell-based; details: FR-190997 as the agonist, read-out: Antagonist Potency (Ki)
# T5 construct: B2-receptor proteins in h-TM, h-CM and h-NPE cells; endogenous in cells; host or cells: human trabecular meshwork (h-TM), human ciliary muscle (h-CM) and human non-pigmented ciliary epithelial (h-NPE) cells
# T5 sequence (P30411 1-391): T1 sequence (P30411 1-391)
# Description: as §1, §2
# [8] = read-out: Intrinsic Activity (Emax, % max relative to BK)
# [9] = read-out: Potency (EC50), [Ca2+]i mobilization
Structure (SMILES),"Emax [1, 8] [%]","EC50 [1, 9] [nM]","Emax ([2]; HTM, read-out: Intrinsic Activity (Emax, % max relative to BK)) [%]","EC50 [2, 9] [nM]",% Change in IOP ([3]; Dose 1/3 hr) [%],% Change in IOP ([3]; Dose 1/6 hr) [%],% Change in IOP ([3]; Dose 2/24 hr) [%],% Change in IOP ([3]; Dose 2/48 hr) [%],"lowering of IOP ([3]; topical ocular, 0.03-600 μg/eye)","Emax [4, 8] [%]","EC50 [4, 9] [nM]",EC50 [5] [nM],Ki [6],Ki [7] [nM]
Cc1cc(OCc2ccccn2)c2cccc(OCc3c(Cl)ccc(N(C)C(=O)CNC(=O)/C=C/c4ccc(/C=C/c5ccncc5)nc4)c3Cl)c2n1 [Compound 1],86,709 ± 54,93,290 ± 75,−12.5 ± 3.4,−18.9 ± 6.6,−26.6 ± 5.4,−15.1 ± 3.9,significant dose-dependent lowering of IOP,96,237 ± 29,38,–,–
Cc1nc2c(OCc3c(Cl)ccc(N(C)C(=O)CNC(=O)/C=C/c4ccc(C(=O)N(C)C)cc4)c3Cl)cccn2c1Br [FR-167344],–,–,–,–,–,–,–,–,–,–,–,–,45 nM and 71 nM,124
CC(=O)Nc1ccc(/C=C/C(=O)NCC(=O)N(C)c2ccc(Cl)c(COc3cccc4ccc(C)nc34)c2Cl)cn1 [FR-173657],–,–,–,–,–,–,–,–,–,–,–,–,68 nM and 114 nM,439
